In US9340513B2, “Propenoate derivatives of betulin” (GlaxoSmithKline LLC, priority 2011, dated 2016) one finds IC50 data, which are given here for twelve molecules.

The test system of this test is HIV-1 (strain IIIB). Briefly: MT4 Cell Antiviral Assay. The format is cell-based. As to conditions: Human immunodeficiency virus 1, 120 h; HIV-1 strain IIIB in MT4 cells, 5 days, Cell Titer-Glo; 50% decrease in HIV-induced cytopathic effect. Here is the method:
Antiviral HIV activity and compound-induced cytotoxicity were measured in parallel based on a modified protocol of the propidium iodide based procedure in the human T-cell lymphotropic virus transformed cell line MT4. Aliquots of the test compounds were serially diluted in DMSO plated in 96-well plates. Exponentially growing MT4 cells were harvested and pelleted. Cell pellets were resuspended in fresh medium (RPMI 1640, 10% FCS, and gentamycin. Cell aliquots were infected by the addition of HIV-1 (strain IIIB) diluted to give a viral multiplicity of infection of 300×TCID50/million cells. A similar cell aliquot was diluted with medium to provide a mock-infected control. Cell infection was allowed to proceed for 1 hr at 37° C. in a tissue culture incubator with humidified 5% CO2 atmosphere. After the 1 hr incubation the virus/cell suspensions were diluted with fresh medium, and added to each well of the plate containing pre-diluted compound. Plates were then placed in a tissue culture incubator with humidified 5% CO2 for 5 days. […] The plates were analyzed in an automated plate reader for luminescence.assay. The control and standard used was efavirinz tested over a concentration range of 0.001 to 1 μM in every assay. The expected range of IC50 values for efavirinz is 0.1 to 1 nM.
The antiviral effect of a test compound is reported as an IC50, i.e. the inhibitory concentration that would produce a 50% decrease in the HIV-induced cytopathic effect. This effect is measured by the amount of test compound required to restore 50% of the cell growth of HIV-infected MT4 cells, compared to uninfected MT4 cell controls. IC50 was calculated by RoboSage, Automated Curve Fitting Program.
For each assay plate, the results (of wells containing uninfected cells or infected cells with no compound were averaged, respectively. For measurements of compound-induced cytotoxicty, results from wells containing various compound concentrations and uninfected cells were compared to the average of uninfected cells without compound treatment. Percent of cells remaining is determined by the following formula: Percent of cells remaining=(compound-treated uninfected cells/untreated uninfected cells)×100.
A level of percent of cells remaining of 79% or less indicates a significant level of direct compound-induced cytotoxicity for the compound at that concentration. When this condition occurs the results from the compound-treated infected wells at this concentration are not included in the calculation of IC50.
For measurements of compound antiviral activity, results from wells containing various compound concentrations and infected cells are compared to the average of uninfected and infected cells without compound treatment. Percent inhibition of virus is determined by the following formula: Percent inhibition of virus=(1−((ave. untreated uninfected cells−treated infected cells)/(ave. untreated uninfected cells−ave. untreated infected cells)))×100
Consider `CC(C)C1=C2[C@H]3CC[C@@H]4[C@@]5(C)CC[C@H](OC(=O)CC(C)(C)C(=O)O)C(C)(C)[C@@H]5CC[C@@]4(C)[C@]3(C)CC[C@@]2(/C=C/C(=O)Nc2ccc(Cl)cc2)CC1=O` [Example 2, 4-(((3aS,5aR,5bR,7aR,9S,11aR,11bR,13aS)-3a-((E)-3-((4-Chlorophenyl)amino)-3-oxoprop-1-en-1-yl)-1-isopropyl-5a,5b,8,8,11a-pentamethyl-2-oxo-3,3a,4,5,5a,5b,6,7,7a,8,9,10,11,11a,11b,12,13,13a-octadecahydro-2H-cyclopenta[a]chrysen-9-yl)oxy)-2,2-dimethyl-4-oxobutanoic acid], for which the IC50 lay within 10 to 250 nM.
The result for `CC(C)C1=C2[C@H]3CC[C@@H]4[C@@]5(C)CC[C@H](OC(=O)CC(C)(C)C(=O)O)C(C)(C)[C@@H]5CC[C@@]4(C)[C@]3(C)CC[C@@]2(/C=C/C(=O)N[C@H](C)c2ccc(Cl)cn2)CC1=O` [Example 5, 4-(((3aS,5aR,5bR,7aR,9S,11aR,11bR,13aS)-3a-((E)-3-(((R)-1-(5-Chloropyridin-2-yl)ethyl)amino)-3-oxoprop-1-en-1-yl)-1-isopropyl-5a,5b,8,8,11a-pentamethyl-2-oxo-3,3a,4,5,5a,5b,6,7,7a,8,9,10,11,11a,1 b,12,13,13a-octadecahydro-2H-cyclopenta[a]chrysen-9-yl)oxy)-2,2-dimethyl-4-oxobutanoic acid] reads less than 10 nM; that for `CC(C)C1=C2[C@H]3CC[C@@H]4[C@@]5(C)CC[C@H](OC(=O)CC(C)(C)C(=O)O)C(C)(C)[C@@H]5CC[C@@]4(C)[C@]3(C)CC[C@@]2(/C=C/C(=O)N[C@@H](C)c2ccc(Cl)cn2)CC1=O` [Example 3, 4-(((3aS,5aR,5bR,7aR,9S,11aR,11bR,13aS)-3a-((E)-3-(((S)-1-(5-Chloropyridin-2-yl)ethyl)amino)-3-oxoprop-1-en-1-yl)-1-isopropyl-5a,5b,8,8,11a-pentamethyl-2-oxo-3,3a,4,5,5a,5b,6,7,7a,8,9,10,11,11a,1 b,12,13,13a-octadecahydro-2H-cyclopenta[a]chrysen-9-yl)oxy)-2,2-dimethyl-4-oxobutanoic acid], less than 10 nM; that for `CC(C)C1=C2[C@H]3CC[C@@H]4[C@@]5(C)CC[C@H](OC(=O)CC(C)(C)C(=O)O)C(C)(C)[C@@H]5CC[C@@]4(C)[C@]3(C)CC[C@@]2(/C=C/C(=O)N[C@@H](C)c2ncccn2)CC1=O` [Example 11, 4-(((3aS,5aR,5bR,7aR,9S,11aR,11bR,13aS)-1-isopropyl-5a,5b,8,8,11a-pentamethyl-2-oxo-3a-((E)-3-oxo-3-(((S)-1-(pyrimidin-2-yl)ethyl)amino)prop-1-en-1-yl)-3,3a,4,5,5a,5b,6,7,7a,8,9,10,11,11a,11b,12,13,13a-octadecahydro-2H-cyclopenta[a]chrysen-9-yl)oxy)-2,2-dimethyl-4-oxobutanoic acid], 10 to 250 nM.
The result for `C/C(=C\[C@@]12CC[C@]3(C)[C@H](CC[C@@H]4[C@@]5(C)CC[C@H](OC(=O)CC(C)(C)C(=O)O)C(C)(C)[C@@H]5CC[C@]43C)C1=C(C(C)C)C(=O)C2)C(=O)NC1(c2ncc(Cl)cn2)CC1` [Example 28, 4-(((3aS,5aR,5bR,7aR,9S,11aR,11bR,13aS)-3a-((E)-3-((1-(5-Chloropyrimidin-2-yl)cyclopropyl)amino)-2-methyl-3-oxoprop-1-en-1-yl)-1-isopropyl-5a,5b,8,8,11a-pentamethyl-2-oxo-3,3a,4,5,5a,5b,6,7,7a,8,9,10,11,11a,11b,12,13,13a-octadecahydro-2H-cyclopenta[a]chrysen-9-yl)oxy)-2,2-dimethyl-4-oxobutanoic acid] reads less than 10 nM; that for `CC(C)C1=C2[C@H]3CC[C@@H]4[C@@]5(C)CC[C@H](OC(=O)CC(C)(C)C(=O)O)C(C)(C)[C@@H]5CC[C@@]4(C)[C@]3(C)CC[C@@]2(/C=C/C(=O)N[C@@H](C)c2cccc(Cl)c2)CC1=O` [Example 23, 4-(((3aS,5aR,5bR,7aR,9S,11aR,11bR,13aS)-3a-((E)-3-(((S)-1-(3-Chlorophenyl)ethyl)amino)-3-oxoprop-1-en-1-yl)-1-isopropyl-5a,5b,8,8,11a-pentamethyl-2-oxo-3,3a,4,5,5a,5b,6,7,7a,8,9,10,11,11a,11b,12,13,13a-octadecahydro-2H-cyclopenta[a]chrysen-9-yl)oxy)-2,2-dimethyl-4-oxobutanoic acid], 10 to 250 nM; that for `CC(C)C1=C2[C@H]3CC[C@@H]4[C@@]5(C)CC[C@H](OC(=O)CC(C)(C)C(=O)O)C(C)(C)[C@@H]5CC[C@@]4(C)[C@]3(C)CC[C@@]2(/C=C/C(=O)O)CC1=O` [Example 16, 4-(((3aS,5aR,5bR,7aR,9S,11aR,11bR,13aS)-3a-((E)-2-Carboxyvinyl)-1-isopropyl-5a,5b,8,8,11a-pentamethyl-2-oxo-3,3a,4,5,5a,5b,6,7,7a,8,9,10,11,11a,11b,12,13,13a-octadecahydro-2H-cyclopenta[a]chrysen-9-yl)oxy)-2,2-dimethyl-4-oxobutanoic acid], 250 to 10000 nM.
The molecule `CC(C)C1=C2[C@H]3CC[C@@H]4[C@@]5(C)CC[C@H](OC(=O)CC(C)(C)C(=O)O)C(C)(C)[C@@H]5CC[C@@]4(C)[C@]3(C)CC[C@@]2(/C=C/C(=O)N[C@H](C)c2cccc(Cl)c2)CC1=O` [Example 31, 4-(((3aS,5aR,5bR,7aR,9S,11aR,11bR,13aS)-3a-((E)-3-(((R)-1-(3-Chlorophenyl)ethyl)amino)-3-oxoprop-1-en-1-yl)-1-isopropyl-5a,5b,8,8,11a-pentamethyl-2-oxo-3,3a,4,5,5a,5b,6,7,7a,8,9,10,11,11a,11b,12,13,13a-octadecahydro-2H-cyclopenta[a]chrysen-9-yl)oxy)-2,2-dimethyl-4-oxobutanoic acid] came in with an IC50 of 10 to 250 nM.
The result for `CC(C)C1=C2[C@H]3CC[C@@H]4[C@@]5(C)CC[C@H](OC(=O)CC(C)(C)C(=O)O)C(C)(C)[C@@H]5CC[C@@]4(C)[C@]3(C)CC[C@@]2(/C=C/C(=O)N[C@H](C)c2ccccc2Cl)CC1=O` [Example 22, 4-(((3aS,5aR,5bR,7aR,9S,11aR,11bR,13aS)-3a-((E)-3-(((R)-1-(2-Chlorophenyl)ethyl)amino)-3-oxoprop-1-en-1-yl)-1-isopropyl-5a,5b,8,8,11a-pentamethyl-2-oxo-3,3a,4,5,5a,5b,6,7,7a,8,9,10,11,11a,11b,12,13,13a-octadecahydro-2H-cyclopenta[a]chrysen-9-yl)oxy)-2,2-dimethyl-4-oxobutanoic acid] reads 10 to 250 nM; that for `CC(C)C1=C2[C@H]3CC[C@@H]4[C@@]5(C)CC[C@H](OC(=O)CC(C)(C)C(=O)O)C(C)(C)[C@@H]5CC[C@@]4(C)[C@]3(C)CC[C@@]2(/C=C/C(=O)NCC2CCCCC2)CC1=O` [Example 33, 4-(((3aS,5aR,5bR,7aR,9S,11aR,11bR,13aS)-3a-((E)-3-((Cyclohexylmethyl)amino)-3-oxoprop-1-en-1-yl)-1-isopropyl-5a,5b,8,8,11a-pentamethyl-2-oxo-3,3a,4,5,5a,5b,6,7,7a,8,9,10,11,11a,11b,12,13,13a-octadecahydro-2H-cyclopenta[a]chrysen-9-yl)oxy)-2,2-dimethyl-4-oxobutanoic acid], less than 10 nM; that for `CC(C)C1=C2[C@H]3CC[C@@H]4[C@@]5(C)CC[C@H](OC(=O)CC(C)(C)C(=O)O)C(C)(C)[C@@H]5CC[C@@]4(C)[C@]3(C)CC[C@@]2(/C=C/C(=O)Nc2ccccn2)CC1=O` [Example 19], 10 to 250 nM.
Molecule `C/C(=C\[C@@]12CC[C@]3(C)[C@H](CC[C@@H]4[C@@]5(C)CC[C@H](OC(=O)CC(C)(C)C(=O)O)C(C)(C)[C@@H]5CC[C@]43C)C1=C(C(C)C)C(=O)C2)C(=O)NC1(c2cccc(Cl)c2)CC1` [Example 29, 4-(((3aS,5aR,5bR,7aR,9S,11aR,11bR,13aS)-3a-((E)-3-((1-(3-Chlorophenyl)cyclopropyl)amino)-2-methyl-3-oxoprop-1-en-1-yl)-1-isopropyl-5a,5b,8,8,11a-pentamethyl-2-oxo-3,3a,4,5,5a,5b,6,7,7a,8,9,10,11,11a,11b,12,13,13a-octadecahydro-2H-cyclopenta[a]chrysen-9-yl)oxy)-2,2-dimethyl-4-oxobutanoic acid] came in with an IC50 of 10 to 250 nM.

Usually IC50 stands for the midpoint of a concentration-inhibition curve. Higher therefore signals weaker potency in that assay.
